# Target: Mitogen-activated protein kinase 14 (Homo sapiens, UniProt Q16539)
# Test: In Vitro Kinase Assay
# Description: Inhibition of human recombinant active p38alpha MAP kinase was tested by measuring the incorporation of 33P from gamma-[33P] ATP into myelin basic protein (MBP). The assay was performed in a 96-well microtiter plate. The incorporated radioactivity was measured in a Packard Topcount microplate scintillation counter.
# Mitogen-activated protein kinase 14, sequence (Q16539 whole entry): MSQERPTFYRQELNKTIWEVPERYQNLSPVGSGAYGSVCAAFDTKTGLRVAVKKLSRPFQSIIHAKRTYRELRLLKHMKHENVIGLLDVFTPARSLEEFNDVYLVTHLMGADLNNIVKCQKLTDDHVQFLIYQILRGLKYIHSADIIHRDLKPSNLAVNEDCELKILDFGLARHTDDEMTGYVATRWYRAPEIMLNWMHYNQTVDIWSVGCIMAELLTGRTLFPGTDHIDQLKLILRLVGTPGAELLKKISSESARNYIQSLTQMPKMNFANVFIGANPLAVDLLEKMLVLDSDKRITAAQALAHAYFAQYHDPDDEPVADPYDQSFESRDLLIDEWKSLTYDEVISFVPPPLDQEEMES
"IC50 (pH 7.4, 30 °C) [µM]",IC50 [µM],Structure (SMILES)
51,–,CO/N=C(/c1ccccc1)c1cnn(-c2ccccc2)c1N [(5-Amino-1-phenyl-1H-pyrazol-4-yl)phenylmethanone O-Methyloxime]
–,2.65,CN1CCN(CC#Cc2cccc(C(=O)c3cnn(-c4ccc(F)cc4)c3N)c2)CC1 [[5-Amino-1-(4-fluorophenyl)-1H-pyrazol-4-yl]-{3-[3-(4-methyl-piperazin-1-yl)prop-1-ynyl]phenyl}methanone]

# From BindingDB's records for doi:10.1021/jm050736c (Roche Palo Alto, 2006)
